Our source for the ED50 and MIC values is patent EP0180045A2, “Benzanthrin compounds” (ABBOTT LABORATORIES, priority 1984, dated 1986).

The test system of test [1] is KB cells. Description: KB antitumor test (cytotoxicity). It counts as cell-based, human. Particulars: Tumor Cell 9KB; dose which inhibits growth to 50% of control growth by 3 days after drug addition. The procedure:
The cytotoxic activity of the compounds of the invention can be tested by a KB antitumor test. KB cells are derived from human epidermoid carcinoma of the mouth and are cultivated on Eagel's basal medium plus 10% serum. Stock cells are fed 24 hours before testing. Test drug is added on day 0 or day 1. Results are expressed as the dose which inhibits growth to 50% of control growth by 3 days after drug addition.
When the K8 antitumor test was conducted on benzanthrins A and B, the following test data resulted: […]

In test [2] the test system is Staphylococcus aureus 45. Put plainly: MIC, agar dilution method. Format: cell-based. As to conditions: Brain Heart Infusion agar, 10^5 CFU inoculum. The procedure: (§1) The antibacterial activity of the compounds of the invention against a variety of microorganisms is illustrated in Table 3. Minimum inhibitory concentrations were determined by the agar dilution method using brain heart infusion agar with 10 ^5 CFU (colony forming units) as the inoculum.
(In general: Agar dilution tests growth on a series of plates holding different concentrations.)

Test [3] concerns Staphylococcus aureus 45 RAR2. Put plainly: MIC, agar dilution method. It counts as cell-based. Particulars: Brain Heart Infusion agar, 10^5 CFU inoculum. As for the experimental part: as §1
The subject of test [4] is Staphylococcus aureus A5177. Put plainly: MIC, agar dilution method. As to conditions: Brain Heart Infusion agar, 10^5 CFU inoculum. Format: cell-based. As for the experimental part: as §1
For test [5], the system named is Streptococcus agalactiae CMX 508. Description: MIC, agar dilution method. It counts as cell-based. As to conditions: Brain Heart Infusion agar, 10^5 CFU inoculum. As for the experimental part: as §1
Test [6] concerns Escherichia coli SS. Description: MIC, agar dilution method. It counts as cell-based. As to conditions: Brain Heart Infusion agar, 10^5 CFU inoculum. The procedure: as §1
Test [7] concerns Streptococcus bovis A5169. Description: MIC, agar dilution method. It counts as cell-based. As to conditions: Brain Heart Infusion agar, 10^5 CFU inoculum. As for the experimental part: as §1
The subject of test [8] is Streptococcus pyogenes EES61. Put plainly: MIC, agar dilution method. Particulars: Brain Heart Infusion agar, 10^5 CFU inoculum. Format: cell-based. As for the experimental part: as §1
Test [9] concerns Staphylococcus epidermidis 3519. Put plainly: MIC, agar dilution method. Format: cell-based. Particulars: Brain Heart Infusion agar, 10^5 CFU inoculum. The procedure: as §1
The subject of test [10] is Staphylococcus aureus ATCC 6538P. Put plainly: MIC, agar dilution method. It counts as cell-based. Particulars: Brain Heart Infusion agar, 10^5 CFU inoculum. As for the experimental part:
as §1

Test [11] deals with Streptococcus faecium ATCC 8043. Put plainly: MIC, agar dilution method. It counts as cell-based. Particulars: Brain Heart Infusion agar, 10^5 CFU inoculum. The procedure:
as §1

The test system of test [12] is Staphylococcus aureus CMX 686b. Description: MIC, agar dilution method. Format: cell-based. As to conditions: Brain Heart Infusion agar, 10^5 CFU inoculum. As for the experimental part: as §1
Test [13] relates to Lactobacillus casei ATCC 7469. Put plainly: MIC, agar dilution method. It counts as cell-based. Particulars: Brain Heart Infusion agar, 10^5 CFU inoculum. As for the experimental part: as §1
Test [14] deals with Escherichia coli Juhl. Put plainly: MIC, agar dilution method. Format: cell-based. Particulars: Brain Heart Infusion agar, 10^5 CFU inoculum. The procedure: as §1
For test [15], the system named is Klebsiella pneumoniae ATCC 8045. Put plainly: MIC, agar dilution method. Format: cell-based. As to conditions: Brain Heart Infusion agar, 10^5 CFU inoculum. The procedure: as §1
In test [16] the test system is Enterobacter aerogenes ATCC 13048. Description: MIC, agar dilution method. Format: cell-based. Particulars: Brain Heart Infusion agar, 10^5 CFU inoculum. The procedure:
as §1

Test [17] relates to Pseudomonas aeruginosa 5007. Put plainly: MIC, agar dilution method. It counts as cell-based. Particulars: Brain Heart Infusion agar, 10^5 CFU inoculum. The procedure: as §1
Test [18] has as its system Streptococcus pyogenes 930. Put plainly: MIC, agar dilution method. Format: cell-based. As to conditions: Brain Heart Infusion agar, 10^5 CFU inoculum. The procedure:
as §1

Test [19] deals with Sarcina lutea 9341. Put plainly: MIC, agar dilution method. As to conditions: Brain Heart Infusion agar, 10^5 CFU inoculum. Format: cell-based. The procedure:
as §1

Test [20] relates to Pseudomonas cepacia 2961. Put plainly: MIC, agar dilution method. Format: cell-based. Particulars: Brain Heart Infusion agar, 10^5 CFU inoculum. As for the experimental part:
as §1

For test [21], the system named is Staphylococcus epidermidis 3519 RAR1. Put plainly: MIC, agar dilution method. Format: cell-based. Particulars: Brain Heart Infusion agar, 10^5 CFU inoculum. The procedure: as §1
Test [22] has as its system Acinetobacter CMX 669. Put plainly: MIC, agar dilution method. It counts as cell-based. As to conditions: Brain Heart Infusion agar, 10^5 CFU inoculum. As for the experimental part:
as §1

In test [23] the test system is Escherichia coli DC-2. Description: MIC, agar dilution method. It counts as cell-based. Particulars: Brain Heart Infusion agar, 10^5 CFU inoculum. The procedure: as §1

Converted amounts (≈) assume the structure as drawn.

In the case of `Cc1cc2cc(O)c3c(c2c(O[C@@H]2C[C@H](N(C)C)[C@@H](O)[C@@H](C)O2)c1[C@@H]1C[C@H](N(C)C)[C@@H](O)[C@H](C)O1)C(=O)c1cccc(O)c1C3=O` [Benzanthrin A], the ED50 in [1] was in the range of 100 to 300 mg/L. The MIC in test [2] stood at 3.1 mg/L (≈ 4.88 µM); in [3], 3.1 mg/L (≈ 4.88 µM); in [4], 3.1 mg/L (≈ 4.88 µM); in test [5] it was 0.78 mg/L (≈ 1.23 µM); in [6] it was 3.1 mg/L (≈ 4.88 µM); in [7], 0.39 mg/L (≈ 0.614 µM). Also, the MIC in test [8] came out at 1.56 mg/L (≈ 2.46 µM); in [9], 3.1 mg/L (≈ 4.88 µM); in [10] it was 3.1 mg/L (≈ 4.88 µM); in test [11], 1.56 mg/L (≈ 2.46 µM); in test [12] it was 3.1 mg/L (≈ 4.88 µM); in test [13], 0.78 mg/L (≈ 1.23 µM). Moreover, the minimum inhibitory concentration (MIC) is 100 mg/L (≈ 158 µM) in [14]; 100 mg/L (≈ 158 µM) in test [15]; 100 mg/L (≈ 158 µM) in [16]; 100 mg/L (≈ 158 µM) in test [17]; 0.2 mg/L (≈ 0.315 µM) in test [18]; 1.56 mg/L (≈ 2.46 µM) in [19]. For the same compound, the MIC in test [20] is 100 mg/L (≈ 158 µM); in [21], 3.1 mg/L (≈ 4.88 µM); in test [22] it was 100 mg/L (≈ 158 µM); in [23], 100 mg/L (≈ 158 µM).

With `Cc1cc2cc(O)c3c(c2c(O[C@@H]2C[C@H](N(C)C)[C@H](O)[C@@H](C)O2)c1[C@@H]1C[C@H](N(C)C)[C@@H](O)[C@H](C)O1)C(=O)c1cccc(O)c1C3=O` [Benzanthrin B], the ED50 in test [1] was in the range of 200 to 300 mg/L. Moreover, the minimum inhibitory concentration (MIC) came out at 1.56 mg/L (≈ 2.46 µM) in test [2]; 3.1 mg/L (≈ 4.88 µM) in test [3]; 1.56 mg/L (≈ 2.46 µM) in test [4]; 0.39 mg/L (≈ 0.614 µM) in [5]; 6.2 mg/L (≈ 9.77 µM) in test [6]; 0.2 mg/L (≈ 0.315 µM) in [7]. Also, the MIC worked out at 0.39 mg/L (≈ 0.614 µM) in test [8]; 3.1 mg/L (≈ 4.88 µM) in [9]; 3.1 mg/L (≈ 4.88 µM) in test [10]; 1.56 mg/L (≈ 2.46 µM) in test [11]; 1.56 mg/L (≈ 2.46 µM) in test [12]; 0.78 mg/L (≈ 1.23 µM) in test [13]. Also, the minimum inhibitory concentration (MIC) in [14] is 100 mg/L (≈ 158 µM); in [15], 100 mg/L (≈ 158 µM); in [16], 100 mg/L (≈ 158 µM); in [17], 100 mg/L (≈ 158 µM); in test [18], 0.2 mg/L (≈ 0.315 µM); in test [20] it was 100 mg/L (≈ 158 µM). The MIC is 3.1 mg/L (≈ 4.88 µM) in [21] and 100 mg/L (≈ 158 µM) in test [23].

As a reminder, the MIC is the smallest concentration in the dilution series that meets the test's criterion for growth inhibition. A higher MIC goes with weaker potency.
